Laboratory results reported in patent publication US20250325676A1, “CAMPTOTHECIN PRODRUG AND PHARMACEUTICAL COMPOSITION THEREOF” (TIANJIN HEMAY ONCOLOGY PHARMACEUTICAL CO., LTD, priority 2022, published 2025).
Where two headings read alike, the source gives them in different places.

Columns and labels:
NCI-N87 = experiment: In vitro inhibition of human tumor cells, NCI-N87, MTT method; assay type: cell-based
[1] = system: human colon cancer HCT116; conditions: 30 mg/kg i.v. qw × 2; HCT116 large tumor after irinotecan
Text: When the tumor volume was more than 600 mm^3 and stable growth was maintained, the experimental animals were randomly divided by the remainder method and administered according to the size of the tumor volume. […] The subcutaneous tumors were stripped and weighed.
T was the subject and C is the model control.
Tumor volume growth was observed on a regular basis after completion of dosing.

MDA-MB-468 = experiment: In vitro inhibition of human tumor cells, MDA-MB-468, SRB method
[2] = system: human gastric cancer NCI-N87; experiment: Growth of human gastric cancer NCI-N87 in allogeneic transplantation model; assay type: in vivo, nude mice; conditions: 20 mg/kg i.v. qw × 2
Description: The tumor volume was measured 2 to 3 times per week. […] The subcutaneous tumors were peeled and weighed.
The calculation formula of the tumor volume: Volume=0.5×long diameter×short diameter×short diameter.

[3] = system: human colon cancer HCT116; experiment: Growth of human colon cancer HCT116 in allogeneic transplantation model; assay type: in vivo, nude mice
[4] = system: human pancreatic cancer BxPC-3; experiment: Growth of human pancreatic cancer BxPC-3 in allogeneic transplantation model; assay type: in vivo, nude mice; conditions: BxPC-3 model
SW620 = experiment: In vitro inhibition of human tumor cells, SW620, SRB method; assay type: cell-based
Text: (§1) The cells were allowed to adhere overnight.
(§2) Trichloroacetic acid was removed. […] Excess SRB was removed.
(§3) The DMSO concentration was 0.1%.

BxPC-3 = experiment: In vitro inhibition of human tumor cells, BxPC-3, MTT method; assay type: cell-based
Description: as §1
(§4) Adherent cells: Culture medium was aspirated and 100 μl/wells of basal culture (generally refers to medium without fetal bovine serum (FBS) and other additives) containing 0.5 mg/ml MTT were added. The cells were cultured for 3 hours. MTT-containing basal medium was aspirated and 100 μl/wells of DMSO were added to dissolve formazan.
(§5) Unstably adherent cells: Unstably adherent cells were directly added to the MTT solution to achieve the concentration of 0.5 mg/ml and cultured for 3 hours. The ternary solution in an equal volume to the system was added to the system to dissolve the formazan.
as §3

NCI-H460 = experiment: In vitro inhibition of human tumor cells, NCI-H460, MTT method; assay type: cell-based
Description: as §1, §4, §5, §3

LoVo = experiment: In vitro inhibition of human tumor cells, LoVo, SRB method; assay type: cell-based
Text: as §1, §2, §3

[5] = system: human small cell lung cancer NCI-H446; conditions: 20 mg/kg i.v. qw × 2; NCI-H446 model
HCT116 = experiment: In vitro inhibition of human tumor cells, HCT116, MTT method; assay type: cell-based
Description: as §1, §4, §5, §3

human colon cancer SW620 = conditions: 30 mg/kg i.v. qw × 2; SW620 model
[6] = system: human pancreatic cancer BxPC-3; conditions: 30 mg/kg i.v. qw × 2; BxPC-3 large tumors after irinotecan
[7] = No βGU (direct effects of compound on cells)

Molecule | IC50 (NCI-N87; Adding βGU) [nM] | IC50 (NCI-N87; No βGU) [nM] | IC50 (MDA-MB-468; Adding βGU) [nM] | IC50 (MDA-MB-468; No βGU) [nM] | IC50 (SW620; Adding βGU) [nM] | IC50 (SW620; No βGU) [nM] | IC50 (BxPC-3; Adding βGU) [nM] | IC50 (BxPC-3; No βGU) [nM] | IC50 (NCI-H460; Adding βGU) [nM] | IC50 (NCI-H460; No βGU) [nM] | IC50 (LoVo; Adding βGU) [nM] | IC50 (LoVo; No βGU) [nM] | IC50 (HCT116; Adding βGU (β-glucuronidase)) [nM] | IC50 (HCT116; [7]) [nM] | T/C (%) (human colon cancer SW620) | Tumor inhibition rate (%) (human colon cancer SW620) | further results
(2S,3S,4S,5R,6S)-6-(3-((1-(2-((4′-((E)-(8-amino-1-hydroxy-5,7-disulfonicnaphthalen-2-yl)diazenyl)-3,3′-dimethyl-[1,1′-biphenyl]-4-yl)amino)-2-oxoethyl)-1H-1,2,3-triazol-4-yl)methoxy)-4-((((S)-4,11-diethyl-4-hydroxy-3,14-dioxy-3,4,12,14-tetrahydro-1H-pyrano[3′,4′:6,7]indolazino[1,2-b]quinolin-9-yl)oxy)methyl)phenoxy)-3,4,5-trihydroxytetrahydro-2H-pyran-2-carboxylate trisodium [Example 90] | 23 | 839 | 4.3 | 79 |  |  |  |  |  |  |  |  |  |  |  |  | Relative volume RTV (X ± S.D.) [1]: 0.89 ± 0.10; T/C (%) [1]: 23.9%; Tumor inhibition rate (%) [1]: 77.0%; Tumor weight (g, X ± S.D.) [1]: 0.627 ± 0.408 g; Relative volume RTV (X ± S.D.) [2]: 1.30 ± 0.36; T/C (%) [2]: 25.3%; Tumor inhibition rate (%) [2]: 83.5%; Tumor weight (g, X ± S.D.) [2]: 0.197 ± 0.085 g; T/C (%) ([3]; 10 mg/kg i.v. qw × 2): 23.7%; Tumor inhibition rate (%) ([3]; 10 mg/kg i.v. qw × 2): 81.7%
CCc1c2c(nc3ccc(OC(=O)N4CCC(N5CCCCC5)CC4)cc13)-c1cc3c(c(=O)n1C2)COC(=O)[C@]3(O)CC [irinotecan, reference compound] |  |  |  |  |  |  |  |  |  |  |  |  |  |  |  |  | Final body weight change (%) ([4]; 100 mg/kg i.p. qw × 2, d 17 data): 6.4%; Tumor inhibition rate (%) ([3]; 100 mg/kg i.p. qw × 2): 71.6%; Final body weight change (%) ([3]; 100 mg/kg i.p. qw × 2, nude mouse): −10.5%
(2S,3S,4S,5R,6S)-6-(3-((1-(2-(2-(2-((4′-((E)-(8-amino-1-hydroxy-5,7-disulfonicnaphthalen-2-yl)diazenyl)-3,3′-dimethyl-[1,1′-biphenyl]-4-yl)amino)-2-oxoethoxy)ethoxy)ethyl)-1H-1,2,3-triazol-4-yl)methoxy)-4-(((S)-4,11-diethyl-4-hydroxy-3,14-dioxo-3,4,12,14-tetrahydro-1H-pyrano[3′,4′:6,7]indolazino[1,2-b]quinolin-9-yl)oxy)methyl)phe noxy)-3,4,5-trihydroxytetrahydro-2H-pyran-2-carboxylate trisodium [Example 54] | 38 |  | 6.8 | 217 | 15 | 549 | 8.8 | 638 | 11 | 360 | 9.3 | 275 | 13 | 259 |  |  | inhibition rate at 2 μM (NCI-N87; No βGU): 2 μM about 46.1%; Relative volume RTV (X ± S.D.) [5]: 0.61 ± 0.48; T/C (%) [5]: 8.9%; Tumor inhibition rate (%) [5]: 90.5%; Tumor weight (g, X ± S.D.) [5]: 0.093 ± 0.080 g; T/C (%) ([3]; 10 mg/kg i.v. qw × 2): 27.0%; Tumor inhibition rate (%) ([3]; 10 mg/kg i.v. qw × 2): 74.4%
(2S,3S,4S,5R,6S)-6-(3-((1-(6-((4′-((E)-(8-amino-1-hydroxy-5,7-disulfonicnaphthalen-2-yl)diazenyl)-3,3′-dimethoxy-[1,1′-biphenyl]-4-yl)amino)-6-oxohexyl)-1H-1,2,3-triazol-4-yl)methoxy)-4-(((S)-4,11-diethyl-4-hydroxy-3,14-dioxy-3,4,12,14-tetrahydro-1H-pyrano[3′,4′:6,7]indolizino[1,7]quinolin-9-yl)oxy)methyl)phenoxy)-3,4,5-trihydroxytetrahydro-2H-pyran-2-carboxylate trisodium [Example 69] | 32 | 350 | 10 | 88 | 7.7 | 361 | 16 | 720 | 13 | 566 | 11 | 592 | 8.2 | 181 | 1.1 | 99.1 | 
(2S,3S,4S,5R,6S)-6-(3-((1-(8-((4′-((E)-(8-amino-1-hydroxy-5,7-disulfonicnaphthalen-2-yl)diazenyl)-[1,1′-biphenyl]-4-yl)amino)-8-oxooctyl)-1H-1,2,3-triazol-4-yl)methoxy)-4-((((S)-4,11-diethyl-4-hydroxy-3,14-dioxo-3,4,12,14-tetrahydro-1H-pyrano[3′,4′: 6,7]indolazino[1,2-b]quinolin-9-yl)oxy)methyl)phenoxy)-3,4,5-trihydroxytetrahydro-2H-pyran-2-carboxylate trisodium [Example 47] | 62 | 1480 | 14 | 172 | 6.7 | 329 | 27 | 698 | 17 | 350 | 22 | 310 | 12 | 183 | 3.5 | 96.2 | 
(2S,3S,4S,5R,6S)-6-(3-((1-(6-((4′-((E)-(8-amino-1-hydroxy-5,7-disulfonicnaphthalen-2-yl)diazenyl)-3,3′-dimethyl-[1,1′-biphenyl]-4-yl)amino)-6-oxohexyl)-1H-1,2,3-triazol-4-yl)methoxy)-4-(((S)-4-ethyl-4-hydroxy-3,14-dioxy-3,4,12,14-tetrahydro-1H-pyrano[3′,4′:6,7]indolazino[1,2-b]quinolin-9-yl)oxy)methyl)phenoxy)-3,4,5-trihydroxytetrahydro-2H-pyran-2-carboxylate trisodium [Example 24] | 61 |  | 11 | 171 | 6.5 | 915 | 19 | 1270 | 39 | 1720 | 18 | 764 | 14 | 339 |  |  | inhibition rate at 2 μM (NCI-N87; No βGU): 2 μM about 34.4%; Relative volume RTV (X ± S.D.) [6]: 1.04 ± 0.07; T/C (%) [6]: 25.5%; Tumor inhibition rate (%) [6]: 75.3%; Tumor weight (g, X ± S.D.) [6]: 0.742 ± 0.267 g; Relative volume RTV (X ± S.D.) ([4]; 25 mg/kg i.v. qw × 2): 0.46 ± 0.12; T/C (%) ([4]; 25 mg/kg i.v. qw × 2): 9.6%; Tumor inhibition rate (%) ([4]; 25 mg/kg i.v. qw × 2): 92.0%; Tumor weight (g, X ± S.D.) ([4]; 25 mg/kg i.v. qw × 2): 0.134 ± 0.080 g
(2S,3S,4S,5R,6S)-6-(3-((1-(8-((4′-((E)-(8-amino-1-hydroxy-5,7-disulfonicnaphthalen-2-yl)diazenyl)-3,3′-dimethyl-[1,1′-biphenyl]-4-yl)amino)-8-oxooctyl)-1H-1,2,3-triazol-4-yl)methoxy)-4-((((S)-4,11-diethyl-4-hydroxy-3,14-dioxy-3,4,12,14-tetrahydro-1H-pyrano[3′,4′:6,7]indolizino[1,2-b]quinolin-9-yl)oxy)methyl)phenoxy)-3,4,5-trihydroxytetrahydro-2H-pyran-2-carboxylate trisodium [Example 40] | 30 | 1570 | 6.9 | 217 | 6.9 | 244 | 41 | 658 | 15 | 943 | 23 | 302 | 6.1 | 218 | 2.9 | 97.2 | 
